Literature values, collected in PMC4284722, “Intrinsic Tryptophan Fluorescence in the Detection and Analysis of Proteins: A Focus on Förster Resonance Energy Transfer Techniques” (International Journal of Molecular Sciences, 2014).

Test system: serum albumin
Design: method as in PMID 2313585, PMID 19683079
Details: nonspecific ligand of serum albumin

SMILES: O=S(=O)(O)c1cccc2cccc(Nc3ccccc3)c12 [ANS, 1-anilinonaphthalene-8-sulfonate]
- affinity: moderate affinity
